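Grown in 96-well plates, cells were treated for 48 hours with each compound at five concentrations. Insufficient inhibition: endpoint recorded as highest concentration tested. TGI: concentration producing complete growth inhibition.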
Legend:
Assay in all cases: DTP human tumour cell line panel, 48 h
SF-539 CNS = tested on: SF-539 CNS
MALME-3M melanoma = tested on: MALME-3M melanoma
HT29 colon = tested on: HT29 colon
OVCAR-3 ovarian = tested on: OVCAR-3 ovarian
SF-295 CNS = tested on: SF-295 CNS
SK-MEL-5 melanoma = tested on: SK-MEL-5 melanoma
U251 CNS = tested on: U251 CNS
SK-OV-3 ovarian = tested on: SK-OV-3 ovarian
IGROV1 ovarian = tested on: IGROV1 ovarian
HS 578T breast = tested on: HS 578T breast
RPMI-8226 leukemia = tested on: RPMI-8226 leukemia
786-0 renal = tested on: 786-0 renal
M14 melanoma = tested on: M14 melanoma
CAKI-1 renal = tested on: CAKI-1 renal
SW-620 colon = tested on: SW-620 colon
NCI/ADR-RES ovarian = tested on: NCI/ADR-RES ovarian
SN12C renal = tested on: SN12C renal
HCT-116 colon = tested on: HCT-116 colon
K-562 leukemia = tested on: K-562 leukemia
HOP-62 NSCLC = tested on: HOP-62 NSCLC
T-47D breast = tested on: T-47D breast
CCRF-CEM leukemia = tested on: CCRF-CEM leukemia
EKVX NSCLC = tested on: EKVX NSCLC
UO-31 renal = tested on: UO-31 renal
TK-10 renal = tested on: TK-10 renal
MOLT-4 leukemia = tested on: MOLT-4 leukemia
MDA-MB-435 = tested on: MDA-MB-435
SF-268 CNS = tested on: SF-268 CNS
COLO 205 colon = tested on: COLO 205 colon
MCF7 breast = tested on: MCF7 breast
HCC-2998 colon = tested on: HCC-2998 colon
HOP-92 NSCLC = tested on: HOP-92 NSCLC
UACC-62 melanoma = tested on: UACC-62 melanoma
KM12 colon = tested on: KM12 colon
OVCAR-8 ovarian = tested on: OVCAR-8 ovarian
OVCAR-4 ovarian = tested on: OVCAR-4 ovarian
MDA-MB-231 breast = tested on: MDA-MB-231 breast
MDA-N = tested on: MDA-N
DU-145 prostate = tested on: DU-145 prostate
NCI-H522 lung = tested on: NCI-H522 lung
SK-MEL-2 melanoma = tested on: SK-MEL-2 melanoma
HCT-15 colon = tested on: HCT-15 colon
LOX IMVI melanoma = tested on: LOX IMVI melanoma
NCI-H226 lung = tested on: NCI-H226 lung
SR leukemia = tested on: SR leukemia
HL-60(TB) leukemia = tested on: HL-60(TB) leukemia
ACHN renal = tested on: ACHN renal
PC-3 prostate = tested on: PC-3 prostate
SK-MEL-28 melanoma = tested on: SK-MEL-28 melanoma
NCI-H23 lung = tested on: NCI-H23 lung
OVCAR-5 ovarian = tested on: OVCAR-5 ovarian
SNB-75 CNS = tested on: SNB-75 CNS
UACC-257 melanoma = tested on: UACC-257 melanoma
A549 NSCLC = tested on: A549 NSCLC
SNB-19 CNS = tested on: SNB-19 CNS
RXF 393 renal = tested on: RXF 393 renal
NCI-H460 lung = tested on: NCI-H460 lung

`Cc1cc2c3ccccc3nc2c2cc[nH]c(C)c12` showed a TGI (SF-539 CNS) of 11.4 µM, a TGI (MALME-3M melanoma) of 28.8 µM and a TGI (HT29 colon) of over 80.6 µM. The TGI (OVCAR-3 ovarian) was over 35.4 µM, the TGI (SF-295 CNS) was over 88.5 µM and the TGI (SK-MEL-5 melanoma) was 20.2 µM. The TGI (U251 CNS) was 5.62 µM, the TGI (SK-OV-3 ovarian) was 49.6 µM and the TGI (IGROV1 ovarian) was over 55.9 µM. The TGI (HS 578T breast) was over 65.5 µM, the TGI (RPMI-8226 leukemia) was 20 µM and the TGI (786-0 renal) was 3.06 µM. The TGI (M14 melanoma) was 3.42 µM, the TGI (CAKI-1 renal) was 51 µM and the TGI (SW-620 colon) was 6.87 µM. The TGI (NCI/ADR-RES ovarian) was over 100 µM, the TGI (SN12C renal) was 18.5 µM and the TGI (HCT-116 colon) was 3.57 µM. The TGI (K-562 leukemia) was 3.59 µM, the TGI (HOP-62 NSCLC) was over 64.7 µM and the TGI (T-47D breast) was 38.9 µM. For the same compound, the TGI (CCRF-CEM leukemia) was 4.77 µM, the TGI (EKVX NSCLC) was over 70.7 µM and the TGI (UO-31 renal) was 45.1 µM. For the same compound, the TGI (TK-10 renal) was 37.6 µM, the TGI (MOLT-4 leukemia) was 22.1 µM and the TGI (MDA-MB-435) was 3.45 µM. For the same compound, the TGI (SF-268 CNS) was 31.2 µM, the TGI (COLO 205 colon) was 4.31 µM and the TGI (MCF7 breast) was over 100 µM. For the same compound, the TGI (HCC-2998 colon) was 6.67 µM, the TGI (HOP-92 NSCLC) was 49.9 µM and the TGI (UACC-62 melanoma) was 27.9 µM. It also gave a TGI (KM12 colon) of over 31.6 µM, a TGI (OVCAR-8 ovarian) of 31.6 µM and a TGI (OVCAR-4 ovarian) of over 100 µM. The TGI (MDA-MB-231 breast) was 17.1 µM, the TGI (MDA-N) was 3.3 µM and the TGI (DU-145 prostate) was 29.8 µM. It also gave a TGI (NCI-H522 lung) of 4.49 µM, a TGI (SK-MEL-2 melanoma) of 23.3 µM and a TGI (HCT-15 colon) of 7.59 µM. For the same compound, the TGI (LOX IMVI melanoma) was 4.89 µM, the TGI (NCI-H226 lung) was 28.2 µM and the TGI (SR leukemia) was over 74.8 µM. It also gave a TGI (HL-60(TB) leukemia) of 4.23 µM, a TGI (ACHN renal) of 52.4 µM and a TGI (PC-3 prostate) of over 85.5 µM. For the same compound, the TGI (SK-MEL-28 melanoma) was 3.3 µM, the TGI (NCI-H23 lung) was over 31.6 µM and the TGI (OVCAR-5 ovarian) was 36.5 µM. It also gave a TGI (SNB-75 CNS) of 36.5 µM, a TGI (UACC-257 melanoma) of 46.9 µM and a TGI (A549 NSCLC) of 50.8 µM. The TGI (SNB-19 CNS) was 48.9 µM.
`CC1(C)NC(C)(C)/C(=N\O)C(=NO)/C1=N/O` showed a TGI (SF-539 CNS) of over 100 µM, a TGI (MALME-3M melanoma) of over 100 µM and a TGI (HT29 colon) of over 100 µM. It also gave a TGI (OVCAR-3 ovarian) of over 100 µM, a TGI (SF-295 CNS) of over 100 µM and a TGI (SK-MEL-5 melanoma) of over 100 µM. It also gave a TGI (U251 CNS) of over 100 µM, a TGI (SK-OV-3 ovarian) of over 100 µM and a TGI (IGROV1 ovarian) of over 100 µM. For the same compound, the TGI (HS 578T breast) was over 100 µM, the TGI (RXF 393 renal) was over 100 µM and the TGI (RPMI-8226 leukemia) was over 100 µM. The TGI (786-0 renal) was over 100 µM, the TGI (M14 melanoma) was over 100 µM and the TGI (CAKI-1 renal) was over 100 µM. It also gave a TGI (SW-620 colon) of over 100 µM, a TGI (NCI/ADR-RES ovarian) of over 100 µM and a TGI (SN12C renal) of over 100 µM. The TGI (HCT-116 colon) was over 100 µM, the TGI (K-562 leukemia) was over 100 µM and the TGI (HOP-62 NSCLC) was over 100 µM. The TGI (T-47D breast) was over 100 µM, the TGI (CCRF-CEM leukemia) was over 100 µM and the TGI (EKVX NSCLC) was over 100 µM. For the same compound, the TGI (UO-31 renal) was over 100 µM, the TGI (TK-10 renal) was over 100 µM and the TGI (MOLT-4 leukemia) was over 100 µM. The TGI (NCI-H460 lung) was over 100 µM, the TGI (MDA-MB-435) was over 100 µM and the TGI (SF-268 CNS) was over 100 µM. It also gave a TGI (COLO 205 colon) of over 100 µM, a TGI (MCF7 breast) of over 100 µM and a TGI (HCC-2998 colon) of over 100 µM. It also gave a TGI (HOP-92 NSCLC) of over 100 µM, a TGI (UACC-62 melanoma) of over 100 µM and a TGI (KM12 colon) of over 100 µM. It also gave a TGI (OVCAR-8 ovarian) of over 100 µM, a TGI (OVCAR-4 ovarian) of over 100 µM and a TGI (MDA-MB-231 breast) of over 100 µM. It also gave a TGI (MDA-N) of over 100 µM, a TGI (DU-145 prostate) of over 100 µM and a TGI (SK-MEL-2 melanoma) of over 100 µM. For the same compound, the TGI (HCT-15 colon) was over 100 µM, the TGI (LOX IMVI melanoma) was over 100 µM and the TGI (NCI-H226 lung) was over 100 µM. It also gave a TGI (SR leukemia) of over 100 µM, a TGI (HL-60(TB) leukemia) of over 100 µM and a TGI (ACHN renal) of over 100 µM. It also gave a TGI (PC-3 prostate) of over 100 µM, a TGI (SK-MEL-28 melanoma) of over 100 µM and a TGI (NCI-H23 lung) of over 100 µM. For the same compound, the TGI (OVCAR-5 ovarian) was over 100 µM, the TGI (SNB-75 CNS) was over 100 µM and the TGI (UACC-257 melanoma) was over 100 µM. The TGI (A549 NSCLC) was over 100 µM and the TGI (SNB-19 CNS) was over 100 µM.

— PubChem BioAssay (NCI)
